# Results from US6440443B1, “Microencapsulation formulations of cadusafos” (priority 1998, dated 2002).
# Test system: root-knot nematode (RKN), Meloidogyne incognita
# Experiment: Root-knot nematode control on tomato, pots infested 48 hours after soil treatment (set 1), gall rating
# Assay type: in vivo
# Settings: rating scale 0-10
# Description: Formulations AA to FF, excluding DD, were tested for efficacy and persistence in soil for controlling root-knot nematode (RKN), Meloidogyne incognita, on tomato. A three-week old tomato (Lycopersicon esculentum, var “Rutgers”) was planted in a 10 cm square pot containing a nonsterile 50:50 sand:soil mixture. Ten replicate pots (five replicates for two sets of tests) were prepared for each rate of application of test formulation. Stock dispersions of each of the test formulations were prepared by dispersing a sufficient amount of test material in 100 ml of water to give rates of application of 0.25, 0.5, 1, and 2 kg a.i./ha. Each pot received 10 ml of the appropriate suspension on the surface immediately around the tomato, and a control treatment for each of the two experimental set of pots received only water. Pots were also prepared as above with the same rates of the 100 ME cadusafos formulation and technical cadusafos. The RKN eggs used in the experiment were separated from a gelatinous matrix by vigorously shaking the roots of heavy galled tomato plants for four minutes in a 1% aqueous sodium hypochlorite solution. The resulting egg suspension was rapidly poured through nested 60, 325, and 500 mesh sieves. The eggs were collected on the 500 mesh sieve and gently rinsed with water to remove any excess sodium hypochlorite. The eggs were taken up in water, and the resulting aqueous suspension was appropriately diluted with water to give about 2000 eggs per plant which results in an effective inoculant level of about 1000 infective larvae per pot. The eggs were counted using a dissecting microscope. All the pots were infested with nematodes by pippetting the inoculum into the openings around the roots of the previously treated tomato transplants. Pots infested with nematodes 48 hours after soil treatment, hereafter referred to as “set 1”. Pots for examination of residual activity, hereafter referred to as “set 2”, were treated and maintained in the greenhouse for seven days prior to nematode infestations. Upon nematode infestation, the pots were maintained in the greenhouse for 28 days and monitored for phytotoxicity symptoms. At the conclusion of the 28 day period, the soil was washed away from the tomato plants roots and rated according to the following scheme: […]
smiles,measurement,setting,value
CCOP(=O)(SC(C)CC)SC(C)CC (stereo not shown) [Technical],Mean Root-Knot Gall Rating,"infested 48 hours after treatment, rate 0.25 Kg/Ha",2.4
same,Mean Root-Knot Gall Rating,"infested 48 hours after treatment, rate 0.5 Kg/Ha",1.2
same,Mean Root-Knot Gall Rating,"second printing of Table 7, 48 hours after treatment, rate 0.25 Kg/Ha",2.4
same,Mean Root-Knot Gall Rating,"second printing of Table 7, 48 hours after treatment, rate 0.5 Kg/Ha",1.2
